Experimental data as given in patent US11407748B2, “Substituted pyrido[1,2-a]pyrimidines and pyrazino[1,2-a]pyrimidines for enhancing AMPA receptor function” (Takeda Pharmaceutical Company Limited, priority 2017, dated 2022).

Tests used:
hGluR1 flip = target: T1, hGluR1 flip (Homo sapiens, UniProt P42261); experiment: AMPA receptor function-enhancing activity using calcium influx as index; assay type: cell-based; conditions: test compound 30 μM with 3 mM glutamic acid; CHO-K1/GluR1 flip/stargazin-expressing cells; 100% = 3 mM glutamic acid + 300 μM cyclothiazide, 0% = 3 mM glutamic acid alone
T1 construct: expressed in transfected cells; host or cells: CHO-K1
Method in brief: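 CHO-K1 cells co-expressing human GluR1 flip and stargazin, loaded with Calcium5 dye with 1.25 mM probenecid. Test compound at 30 μM added with 3 mM glutamate; fluorescence followed 3 min. Activity % scaled between glutamate alone (0%) and glutamate plus 300 μM cyclothiazide (100%).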

Long Evans rats = experiment: Novel object recognition test; assay type: in vivo, rat; conditions: 1 mg/kg p.o.; for Novel Object Interaction (%): 1 hr before acquisition trial and 1 hr before retention trial, retention trial 48 hr after acquisition, mean ± standard error; for novel object interaction (result in words): rats
Excerpt: Experimental Example 2 Novel Object Recognition Test (1) Animals
Male Long Evans rats were supplied by Japan SLC, and used at 7-week-old in the experiments. After arrival to the vivarium, animals were allowed a minimum of 1 week for acclimation. They were housed under a 12:12-h light/dark cycle in a temperature- and humidity-controlled laboratory and allowed food and water ad libitum.
A test compound was suspended in 0.5% methylcellulose in distilled water and orally administered (p.o.). All test compounds were dosed in a volume of 2 mL/kg body weight for rats.
(3) Novel Object Recognition Test
Novel object recognition test is a test system utilizing the novel object preference characteristics of rodents. This novel object recognition test consists of two trials, “acquisition trial” and “retention trial”, and, when an interval between these two trials is short, rodents spend a longer period for novel object exploration behaviors, and the preference dissipates as the interval gets longer. From this, the behavioral change in the novel object recognition test is considered to reflect the rodents' memory of the object during the acquisition trial. In this experimental example, the retention trial was carried out 48 hr after the acquisition trial. On the day before the test, for acclimation, Long-Evans ats were allowed to freely move about the test box (40×40×50 cm) for 10 minutes. On the test day, the rats were acclimated to the test room for about 1 hr prior to the test. The test compound (Compound A (Example 14), Compound B (Example 48), 1 mg/kg) were orally administered to the rats twice 1 hr before the acquisition trial and 1 hr before the retention trial. For the acquisition trial, two identical objects (A1, A2) were placed in the test box. The rats were put in the test box for 3 min, and the duration contacting each object was measured. The retention trial was carried out 48 hr after the acquisition trial. For the retention trial, the familiar object (A3) used for the acquisition trial and the novel object (B) different shape from A3 were placed in the test box. The rats were put in the test box for 3 min. The duration contacting each object in the acquisition trial and the retention trial, and the novel object interaction (%) was calculated. The novel object interaction (%) was expressed as (the duration contacting the novel object)/[(the duration contacting the novel object)+(the duration contacting the familiar object)]×100(%) at mean±standard error.

T1 sequence (P42261 19-906 isoform P42261-2 limits assumed): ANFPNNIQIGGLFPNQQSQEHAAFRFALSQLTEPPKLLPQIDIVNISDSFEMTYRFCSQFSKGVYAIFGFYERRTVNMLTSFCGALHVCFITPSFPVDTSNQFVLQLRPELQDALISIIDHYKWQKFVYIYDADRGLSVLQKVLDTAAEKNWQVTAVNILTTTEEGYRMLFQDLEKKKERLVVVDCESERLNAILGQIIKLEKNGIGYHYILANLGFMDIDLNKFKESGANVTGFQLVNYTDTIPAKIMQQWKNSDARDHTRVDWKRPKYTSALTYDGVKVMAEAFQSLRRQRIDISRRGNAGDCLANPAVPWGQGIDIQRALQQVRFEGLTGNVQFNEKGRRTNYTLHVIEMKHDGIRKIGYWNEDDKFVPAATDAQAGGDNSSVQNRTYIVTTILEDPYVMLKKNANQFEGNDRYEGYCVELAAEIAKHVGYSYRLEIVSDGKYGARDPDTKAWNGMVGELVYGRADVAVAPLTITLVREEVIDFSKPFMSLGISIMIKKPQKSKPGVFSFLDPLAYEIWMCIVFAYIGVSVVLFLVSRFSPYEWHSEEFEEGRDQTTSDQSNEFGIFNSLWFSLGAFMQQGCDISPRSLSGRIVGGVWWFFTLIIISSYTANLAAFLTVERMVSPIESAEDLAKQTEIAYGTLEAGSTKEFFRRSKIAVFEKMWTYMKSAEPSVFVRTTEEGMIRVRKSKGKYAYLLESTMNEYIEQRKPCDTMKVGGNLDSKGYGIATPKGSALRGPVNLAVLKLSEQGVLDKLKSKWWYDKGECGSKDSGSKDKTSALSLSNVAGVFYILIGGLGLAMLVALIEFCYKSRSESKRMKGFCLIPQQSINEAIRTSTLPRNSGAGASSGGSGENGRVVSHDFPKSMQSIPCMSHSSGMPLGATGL
T1 sequence (Q9Y698 whole entry partner): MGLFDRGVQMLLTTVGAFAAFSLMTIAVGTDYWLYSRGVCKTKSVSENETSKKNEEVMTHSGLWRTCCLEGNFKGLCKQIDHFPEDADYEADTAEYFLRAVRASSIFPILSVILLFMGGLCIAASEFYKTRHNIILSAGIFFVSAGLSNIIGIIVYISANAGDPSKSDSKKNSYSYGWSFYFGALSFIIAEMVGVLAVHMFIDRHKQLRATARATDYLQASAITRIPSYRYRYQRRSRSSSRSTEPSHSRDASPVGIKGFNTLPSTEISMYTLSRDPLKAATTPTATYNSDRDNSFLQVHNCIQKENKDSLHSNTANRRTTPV

Structure (SMILES)	activation at 30 µM (hGluR1 flip) [%]	Novel Object Interaction (%) (Long Evans rats)	novel object interaction (result in words) (Long Evans rats)
C[C@H]1CN(C(=O)c2ccc(-c3cccn4c(=O)c(Br)c(C(F)(F)F)nc34)cc2)CCO1 [Example 48, 3-bromo-9-(4-(((2S)-2-methylmorpholin-4-yl)carbonyl)phenyl)-2-(trifluoromethyl)-4H-pyrido[1,2-a]pyrimidin-4-one]	88.1	61.42 ± 2.61	increased the novel object interaction
O=C(c1ccc(-c2cccn3c(=O)c(Br)c(C(F)(F)F)nc23)cc1)N1CCOCC1 [Example 14, 3-bromo-9-(4-(morpholin-4-ylcarbonyl)phenyl)-2-(trifluoromethyl)-4H-pyrido[1,2-a]pyrimidin-4-one]	94.3	61.94 ± 2.33	increased the novel object interaction
